{"source": "patent US7141691B2", "about": "“Protein-bound derivatives of platinum complexes containing cyclobutane1, 1-dicarboxyllate ligands” (KTB Tumorforschungs GmbH, priority 2003, dated 2006)", "test_system": "MaTu (mammary carcinoma)", "assay": "Efficacy in vivo, MaTu tumor model in naked mice (change in tumor volume)", "settings": "DACH-Pt-CB-1-Mal 75 and 100 mg/kg i.v. once on day 7, carboplatin 100 mg/kg once on day 7 or 75 mg/kg on days 7 and 14", "procedure": "The invention is elucidated in more detail by the following examples in conjunction with the figures. […] Animals: naked mice Tumor model: MaTu (mammary carcinoma) Treatment: DACH-Pt-CB-1-Mal (75 and 100 mg/kg) and carboplatin (100 mg/kg) once on day 7, carboplatin (75 mg/kg) on each of days 7 and 14; i.v. (carboplatin and derivatives each in 0.15 0.3 ml glucose phosphate buffer pH 6.5).", "data": [{"smiles": "O=C(CCOCCN1C(=O)C=CC1=O)OC1CC2(C1)C(=O)[O][Pt]1([NH]C3CCCC[C@H]3[NH]1)[O]C2=O", "note": "(stereo partly drawn) [DACH-Pt-CB-1-Mal, trans-(R,R/S,S)-cyclohexane-1,2-diaminoplatinum(II)-[3-(6-maleinimido-4-oxacaproyl)cyclobutane-1,1-dicarboxylate]]", "values": [{"measurement": "in vivo efficacy (change in the tumor volume) compared to carboplatin", "result": "increased compared to carboplatin"}]}]}
